Results reported in patent US6610853B1, “N-(phenylsulfonyl)picolinamide derivatives, process for producing the same, and herbicide” (Kureha Kagaku Kogyo K.K., priority 2000, dated 2003).

Experiments:
Experiment in all cases: Test on herbicidal activity by foliar application
Format in all cases: in vivo
Conditions in all cases: foliar spray, 1 kg/ha, plants at 1-2 leaf stage in pots, evaluated 14 days after spraying
Convolvulus arvensis = test system: Convolvulus arvensis
Method: (§1) Test on Herbicidal Activity by Foliar Application: Herbicidal solutions of each test compounds, which were prepared by dissolving at predetermined concentrations such a wettable powder of the test compound as that described in the above Formulation Example, were sprayed at dosages of 1 kg/ha over foliar parts of Amaranthus retroflexus, Bidens pilosa, Sinapis arvensis, Stellaria media, Solanum nigrum, Abutilon theophrasti, Convolvulus arvensis, Matricaria chamomilla, Galium aparine, Veronica hederaefolia, and Setaria viridis (each test plant is 1-2 leaf stage) which were grown in pots. 14 days latter after spraying, its herbicidal activity was evaluated in accordance with the below-described system. Herbicidal Activity 1: less than 30% inhibition 2: 30% or more-50% inhibition 3: 50% or more-70% inhibition 4: 70% or more-90% inhibition 5: 90% or more inhibition

Amaranthus retroflexus = test system: Amaranthus retroflexus
Method: as §1

Stellaria media = test system: Stellaria media
Method: as §1

Sinapis arvensis = test system: Sinapis arvensis
Method: as §1

Matricaria chamomilla = test system: Matricaria chamomilla
Method: as §1

Bidens pilosa = test system: Bidens pilosa
Method: as §1

Veronica hederaefolia = test system: Veronica hederaefolia
Method: as §1

Setaria viridis = test system: Setaria viridis
Method: as §1

Solanum nigrum = test system: Solanum nigrum
Method: as §1

Abutilon theophrasti = test system: Abutilon theophrasti
Method: as §1

Galium aparine = test system: Galium aparine
Method: as §1

Row | SMILES | Herbicidal activity, Convolvulus arvensis (Convolvulus arvensis) | Herbicidal activity, Amaranthus retroflexus (Amaranthus retroflexus) | Herbicidal activity, Stellaria media (Stellaria media) | Herbicidal activity, Sinapis arvensis (Sinapis arvensis) | Herbicidal activity, Matricaria chamomilla (Matricaria chamomilla) | Herbicidal activity, Bidens pilosa (Bidens pilosa) | Herbicidal activity, Veronica hederaefolia (Veronica hederaefolia) | Herbicidal activity, Setaria viridis (Setaria viridis) | Herbicidal activity, Solanum nigrum (Solanum nigrum) | Herbicidal activity, Abutilon theophrasti (Abutilon theophrasti) | Herbicidal activity, Galium aparine (Galium aparine)
1 | COc1ccc(C(=O)NS(=O)(=O)c2c(Cl)cccc2Cl)nc1 [Compound I-594, N-[(2,6-Dichlorophenyl)sulfonyl]-5-methoxy-2-pyridinecarboxamide] | 2 (30% or more-50% inhibition) | 2 (30% or more-50% inhibition) | 5 (90% or more inhibition) | 5 (90% or more inhibition) | 4 (70% or more-90% inhibition) | 4 (70% or more-90% inhibition) | 4 (70% or more-90% inhibition) | 2 (30% or more-50% inhibition) | 2 (30% or more-50% inhibition) | 4 (70% or more-90% inhibition) | 4 (70% or more-90% inhibition)
2 | COC(=O)c1ccccc1S(=O)(=O)NC(=O)c1cc(Cl)cc(OC)n1 [Compound I-221, 2-[[[(4-Chloro-6-methoxypyridin-2-yl)carbonyl]-amino]sulfonyl]benzoic Acid Methyl Ester] | 4 (70% or more-90% inhibition) | 5 (90% or more inhibition) | 4 (70% or more-90% inhibition) | 5 (90% or more inhibition) | 2 (30% or more-50% inhibition) | 4 (70% or more-90% inhibition) | 4 (70% or more-90% inhibition) | 3 (50% or more-70% inhibition) | 5 (90% or more inhibition) | 4 (70% or more-90% inhibition) | 5 (90% or more inhibition)
3 | COc1ccc(C(=O)NS(=O)(=O)c2ccccc2S(C)(=O)=O)nc1Br [Compound I-819, 6-Bromo-5-methoxy-N-[[2-(methylsulfonyl)-phenyl]sulfonyl]-2-pyridinecarboxamide] | 4 (70% or more-90% inhibition) | 5 (90% or more inhibition) | 5 (90% or more inhibition) | 5 (90% or more inhibition) | 5 (90% or more inhibition) | 5 (90% or more inhibition) | 3 (50% or more-70% inhibition) | 5 (90% or more inhibition) | 5 (90% or more inhibition) | 5 (90% or more inhibition) | 4 (70% or more-90% inhibition)
4 | COc1ccc(C(=O)NS(=O)(=O)c2ccccc2OC(F)(F)F)nc1[N+](=O)[O-] [Compound I-778] | 5 (90% or more inhibition) | 4 (70% or more-90% inhibition) | 3 (50% or more-70% inhibition) | 5 (90% or more inhibition) | 5 (90% or more inhibition) | 5 (90% or more inhibition) | 2 (30% or more-50% inhibition) | 3 (50% or more-70% inhibition) | 5 (90% or more inhibition) | 5 (90% or more inhibition) | 4 (70% or more-90% inhibition)
5 | COC(=O)c1ccccc1S(=O)(=O)NC(=O)c1cc(OC)cc(C)n1 [Compound I-254, 2-[[[(4-Methoxy-6-methylpyridin-2-yl)carbonyl]-amino]sulfonyl]benzoic Acid Methyl Ester] | 3 (50% or more-70% inhibition) | 5 (90% or more inhibition) | 5 (90% or more inhibition) | 5 (90% or more inhibition) | 3 (50% or more-70% inhibition) | 5 (90% or more inhibition) | 5 (90% or more inhibition) | 4 (70% or more-90% inhibition) | 5 (90% or more inhibition) | 5 (90% or more inhibition) | 5 (90% or more inhibition)
6 | COc1ccc(C(=O)NS(=O)(=O)c2ccccc2C(F)(F)F)nc1 [Compound I-054, N-[(2-Trifluoromethylphenyl)sulfonyl]-5-methoxy-2-pyridinecarboxamide] | 3 (50% or more-70% inhibition) | 3 (50% or more-70% inhibition) | 5 (90% or more inhibition) | 5 (90% or more inhibition) | 5 (90% or more inhibition) | 5 (90% or more inhibition) | 4 (70% or more-90% inhibition) | 5 (90% or more inhibition) | 4 (70% or more-90% inhibition) | 2 (30% or more-50% inhibition) | 4 (70% or more-90% inhibition)
7 | COC(=O)c1ccccc1S(=O)(=O)NC(=O)c1ccc(OC)c(Br)n1 [Compound I-265, 2-[[[(6-Bromo-5-methoxypyridin-2-yl)carbonyl]-amino]sulfonyl]benzoic acid methyl ester] | 3 (50% or more-70% inhibition) | 5 (90% or more inhibition) | 5 (90% or more inhibition) | 5 (90% or more inhibition) | 5 (90% or more inhibition) | 5 (90% or more inhibition) | 3 (50% or more-70% inhibition) | 4 (70% or more-90% inhibition) | 5 (90% or more inhibition) | 5 (90% or more inhibition) | 4 (70% or more-90% inhibition)
8 | COc1ccc(C(=O)NS(=O)(=O)c2ccccc2S(=O)(=O)N(C)C)nc1[N+](=O)[O-] [Compound I-858, N-[[2-(N,N-Dimethylaminosulfonyl)phenyl]-sulfonyl]-5-methoxy-6-nitro-2-pyridinecarboxamide] | 5 (90% or more inhibition) | 5 (90% or more inhibition) | 5 (90% or more inhibition) | 5 (90% or more inhibition) | 4 (70% or more-90% inhibition) | 5 (90% or more inhibition) | 4 (70% or more-90% inhibition) | 5 (90% or more inhibition) | 5 (90% or more inhibition) | 5 (90% or more inhibition) | 5 (90% or more inhibition)
